# Laboratory results published in patent publication US11571397B2, “Compositions and methods for treating seizure-induced sudden death” (ZOGENIX INTERNATIONAL LIMITED, priority 2018, dated 2023).
# Key:
# [1] = test system: DBA/1 mice; assay: AGSz and S-IRA in DBA/1 mice, 8-hour testing protocol; assay type: in vivo, mouse
# Description: (§1) The typical seizure semiology in the DBA/1 mice begins with a wild running phase, followed by clonic-tonic seizures and then tonic hind-limb extension that immediately leads to S-IRA during post-ictal behavioral depression (PID). The onset of S-IRA was visually determined by the occurrence of respiratory failure following loss of the righting reflex, relaxation of the pinnae, and then a generalized loss of muscle tone. These behaviors are reliable indicators of imminent sudden death in DBA mice. Resuscitation was initiated within 10 s after pinna relaxation and the generalized loss of muscle tone, which was effective in reversing S-IRA and reviving >90% of the mice. The mice were placed in a supine position, and a polyethylene tube (4.4 mm external diameter) connected to the outflow of a rodent respirator (Harvard Apparatus 680), pumping one cc of room air at 200 strokes/min, was the placed over the nostrils, which produced observable displacement of the chest. Respiratory support was provided until spontaneous breathing rhythm returned, which required ˜19 sec. The mice were monitored until they regained the righting reflex and then returned to their home cage. Video recordings of seizure behaviors and recovery were made for off-line evaluation and analysis, including the duration of PID, as indicated by time from muscle tone loss to return of the righting reflex.
# (§2) The experiments herein disclosed examined the dose-response relationship of FFA (10-40 mg/kg, i.p.) on AGSz-induced behaviors in DBA/1 mice compared to vehicle (saline) treated control mice using different seizure-testing protocols. This initial protocol involved induction of AGSz at 30 min, 12 h and 24 h after drug administration, and subsequently at 24 h intervals until susceptibility to S-IRA returned. These studies were aimed at determining whether FFA can reduce the incidence (frequency) and severity of AGSz and susceptibility to S-IRA. […] To determine the effect of FFA on the severity of AGSz in DBA/1 mice, the ordinal scoring system of De Sarro and coworkers was used: no seizure=0; wild running=1; clonic seizure=2; tonic seizure=3; death/S-IRA=4. The median effective dose (ED50) for FFA for blocking AGSz at 30 min following the i.p. injection in DBA/1 mice was calculated using a second order polynomial equation (y=65.113x^2-2.0715x-63.578) that gave the best fit (R^2=0.9989).
# (§3) The videos of seizure behaviors were analyzed visually, and the incidence (frequency) of AGSz, seizure severity, and incidence (frequency) of S-IRA following drug treatment were compared statistically to vehicle controls using the Chi-square, Mann-Whitney U or paired samples t-test with SPSS software. The ED50 was calculated using SigmaPlot 13 and Microsoft® Excel. The experimental protocols used in these studies were approved by the Laboratory Animal Care and Use Committee of Southern Illinois University School of Medicine, which are in accordance with National Institutes of Health guidelines for the care and use of laboratory animals. Measures to minimize animal usage as well as pain and discomfort were included in these procedures.
# FIGS. 2A through 2D show a time-course of selective S-IRA blocking effect of FFA in DBA/1 mice (8 h testing protocol). The 8-h testing protocol during the first 24 h was employed in the next group of studies of the effect of 5-20 mg/kg (i.p.) doses of FFA. […] The severity of AGSz remained unaffected in the mice that received 5 (light horizontal line bars; n=9) mg/kg FFA. A significant return of AGSz severity among the FFA treated DBA/1 mice occurred by 24 h. [**p<0.01; #p<0.001 indicate statistically different from controls, Mann-Whitney U test].
# [2] = test system: children with refractory epilepsy; details: 0.5 to 1 mg/kg/day; cited from earlier work
# [3] = test system: DBA/1 mice; assay: AGSz and S-IRA in DBA/1 mice tested for the first time at 16 h after FFA pretreatment; assay type: in vivo, mouse
# Description: as §1
# FIGS. 4A and 4B illustrate the reduction in the incidence of severe seizures and prevention of S-IRA by FFA pretreatment. In subsequent experiments, AGSz were examined in DBA/1 mice that were treated with 15 mg/kg of FFA i.p. but were initially tested at 16 h. […] [#p<0.001 (Chi-square test] (FIG. 4B). The return of S-IRA susceptibility (94.5%) in the FFA treated mice occurred at 48 h consistent with the previous findings (FIG. 2C).
# [4] = test system: Dravet syndrome patients; details: cited from earlier work
# [5] = test system: zebrafish model of Dravet syndrome; details: in vivo; cited from earlier work
# [6] = test system: DBA/1 mice; assay: Audiogenic seizures (AGSz) and S-IRA in DBA/1 mice, initial testing protocol (30 min, 12 h, 24 h, then 24 h intervals); assay type: in vivo, mouse
# Description: These studies involved age matched (<80 days) male DBA/1 mice obtained from ENVIGO. Because there were no significant sex differences in the AGSz incidence (frequency), severity and S-IRA susceptibility in DBA/1 mice, males were used in this study. The mice were primed as described in previous studies (Faingold et al., (2010). Epilepsy Behav. 17:436-40; Faingold, et al. (2011) Brain Res. 1418:104-10; Faingold, et al., (2011) Epilepsy Behav. 22:186-90). Briefly, the mice were maintained on an ad libitum diet under a 12 h light-dark cycle in a temperature and humidity-controlled laboratory animal medicine facility. Starting at postnatal day 23-25, the mice were primed and tested for consistent susceptibility to AGSz and S-IRA by presenting an intense acoustic stimulus, as described previously.
# as §1, §2, §3
# [7] = 15 mg/kg i.p., first tested at 16 h (n=73)
# [8] = 20 and 40 mg/kg i.p., starting at 30 min, vs saline
smiles,measurement,setting,value
"CCNC(C)Cc1cccc(C(F)(F)F)c1 (racemic) [FFA, 3-trifluoromethyl-N-ethylamphetamine]",blocking any AGSz behavior,[1]; 5 mg/kg,ineffective
same,effect against tonic seizures,[1]; 5 mg/kg,ineffective
same,incidence of S-IRA,[1]; 5 mg/kg,not affected
same,severity of AGSz,[1]; 5 mg/kg,unaffected
same,mice with selective blockade of S-IRA among those that showed tonic AGSz,"[1]; 15 mg/kg, 16 h time point (n=5)",100%
same,total incidence of selective S-IRA blockade,"[1]; 15 mg/kg, during time-course studies",70%
same,median AGSz severity scores,"[1]; 10, 15 and 20 mg/kg i.p., starting at 8 h, vs saline",significant reduction
same,incidence of S-IRA,"[1]; 10, 15 and 20 mg/kg, starting at 8 h, vs saline",significant reduction
same,return of susceptibility to tonic seizures,[1]; 10-20 mg/kg,16 to 48 h
same,incidence of tonic seizures,"[1]; 10-20 mg/kg, at 8 h, vs saline",significantly reduced
same,duration of PID (loss of righting reflex),"[1]; 16 h after 15 mg/kg, mice with selective S-IRA blockade, pre-drug 168.6±43.4 s",34.6 ± 13.3 s
same,return of AGSz severity,"[1]; FFA treated mice, 8-h protocol",≤ 24 h
same,return of S-IRA susceptibility,"[1]; FFA treated mice, 8-h protocol",48 h
same,number of seizures experienced by the patients,[2],reduction
same,overall incidence of S-IRA,[3]; [7],21.9%
same,overall incidence of tonic seizures,[3]; [7],68.5%
same,incidence of selective S-IRA blockade among mice that continued to display tonic seizures,"[3]; 15 mg/kg, 16 h (n=50)",68%
same,return of S-IRA susceptibility,[3]; at 48 h after 15 mg/kg,94.5%
same,frequency and/or severity of intractable seizures,[4],significantly reduced
same,blocking electrographic and seizure-like behavioral activity,[5],effective
same,incidence (frequency) of S-IRA,[6]; 10 mg/kg,not affected
same,incidence of tonic seizures,[6]; 10 mg/kg,not affected
same,incidence (frequency) of AGSz,[6]; 10 mg/kg i.p.,No significant effect
same,AGSz severity,"[6]; 10 mg/kg, at 12 h",significantly reduced
same,reduction of S-IRA,"[6]; 10 mg/kg, at 12 h",36.4%
same,reduction of tonic seizure,"[6]; 10 mg/kg, at 12 h",54.6%
same,mice showing S-IRA blockade following tonic seizure (selective S-IRA block),"[6]; 10 mg/kg, at 12 h, not statistically significant",18.2%
same,duration of AGSz blockade,[6]; 15 mg/kg,< 24 h
same,onset of AGSz blockade,[6]; 15 mg/kg,12 h
same,tonic seizure blocking effect,[6]; 15 mg/kg,delayed and transient
same,return of maximal seizure severity,[6]; 20 mg/kg,24 h
same,duration of seizure severity decrease,[6]; 40 mg/kg,up to 8 days
same,mice continuing to show reduced susceptibility to tonic AGSz and S-IRA for up to 8 days,[6]; 40 mg/kg,33.3%
same,return of maximal seizure severity,[6]; 40 mg/kg,48 h
same,time at which reduction in severity score occurred,[6]; 10 and 15 mg/kg,12 h
same,incidence (frequency) of AGSz,"[6]; 15, 20 and 40 mg/kg i.p. vs saline treated controls",significantly reduce
same,incidence (frequency) of S-IRA,"[6]; 15, 20 and 40 mg/kg i.p., beginning at 30 min, vs saline",significant reduction
same,"duration of reductions of seizure incidence, severity and S-IRA susceptibility",[6]; 20-40 mg/kg,≥ 48 h
same,susceptibility to AGSz,"[6]; 20 and 40 mg/kg i.p., at 30 minutes, vs saline-treated controls",significantly reduced
same,median AGSz severity score,[6]; [8],significant reduction
same,tonic seizure incidence,[6]; [8],significant reduction
same,return of S-IRA susceptibility,"[6]; FFA-treated mice, initial protocol",≤ 72 h
same,ED50,"[6]; Mus musculus, ip, 0.5 h, 30 min after i.p. injection, read-out: ED50 for blockade of AGSz",21.7 mg/kg
